In US20240368135A1 (VERTEX PHARMACEUTICALS INCORPORATED, priority 2021, published 2024):

The compounds below were run against human NaV 1.8 (Homo sapiens, UniProt Q9Y5Y9) (assay: E-VIPR assay detecting and measuring NaV inhibition properties). Details: HEK cells expressing truncated human NaV 1.8; in the presence of human serum (compound numbers followed by *); read-out: IC50 in the E-VIPR Assay, performed in the presence of human serum.
Assay type: cell-based
From the text: Sodium ion channels are voltage-dependent proteins that can be activated by inducing membrane voltage changes by applying electric fields. The electrical stimulation instrument and methods of use, referred to as E-VIPR, are described in International Publication No. WO 2002/008748 A3 and C.-J. Huang et al. Characterization of voltage-gated sodium channel blockers by electrical stimulation and fluorescence detection of membrane potential, 24 Nature Biotech. 439-46 (2006), both of which are incorporated by reference in their entirety. The instrument comprises a microtiter plate handler, an optical system for exciting the coumarin dye while simultaneously recording the coumarin and oxonol emissions, a waveform generator, a current- or voltage-controlled amplifier, and parallel electrode pairs that are inserted into assay plate wells. Under integrated computer control, this instrument passes user-programmed electrical stimulus protocols to cells within the wells of the microtiter plate.
16-20 hours prior to running the assay on E-VIPR, HEK cells expressing a truncated form of human NaV 1.8 with full channel activity were seeded into microtiter 384-well plates, pre-coated with matrigel, at a density of 25,000 cells per well. 2.5-5% KIR2.1 Bacmam virus was added to the final cell suspension before seeding into cell plates. HEK cells were grown in Dulbecco's Modified Eagle's Medium (DMEM) supplemented with 10% FBS (Fetal Bovine Serum, qualified; Sigma #F4135), 1% NEAA (Non-Essential Amino Acids, Gibco #11140), 1% HEPES (Gibco #15630), 1% Pen-Strep (Penicillin-Streptomycin; Gibco #15140) and 5 μg/ml Blasticidin (Gibco #R210-01). Cells were expanded in vented cap cell culture flasks, with 90-95% humidity and 5% CO2.
Human Serum (HS, Millipore #S1P1-01KL, or Sigma SLBR5469V and SLBR5470V as a 50%/50% mixture, for 25% assay final concentration) • Bath 1 Buffer: • Sodium Chloride 160 mM (9.35 g/L), Potassium Chloride, 4.5 mM (0.335 g/L), Glucose 10 mM (1.8 g/L), Magnesium Chloride (Anhydrous) 1 mM (0.095 g/L), Calcium Chloride 2 mM (0.222 g/L), HEPES 10 mM (2.38 g/L) in water. • Na/TMA C1 Bath 1 Buffer: • Sodium Chloride 96 mM (5.61 g/L), Potassium Chloride 4.5 mM (0.335 g/L), Tetramethylammonium (TMA)-Cl 64 mM (7.01 g/L), Glucose 10 mM (1.8 g/L), Magnesium Chloride (Anhydrous) 1 mM (0.095 g/L), Calcium Chloride 2 mM (0.222 g/L) HEPES 10 mM (2.38 g/L) in water. • Hexyl Dye Solution (2× concentration): • Bath 1 Buffer containing 0.5% P-cyclodextrin (made fresh prior to each use, Sigma #C4767), 8 μM CC2-DMPE and 2 μM DiSBAC6(3). The solution was made by adding 10% Pluronic F127 stock equal to combined volumes of CC2-DMPE and DiSBAC6(3). The order of preparation was first mix Pluronic and CC2-DMPE, then add DiSBAC6(3), then while vortexing add Bath 1/p-Cyclodextrin.
Compound Loading Buffer (2× concentration): Na/TMA C1 Bath1 Buffer containing HS (omitted in experiments run in the absence of human serum (HS)) 50%, VABSC-1 1 mM, BSA 0.2 mg/ml (in Bath-1), KCl 9 mM, DMSO 0.625%.
1) To reach the final concentration in each well, 375 nL of each compound was pre-spotted (in neat DMSO) into polypropylene compound plates at 240× desired final concentration from an intermediate stock concentration of 0.075 mM, in an 11 point dose response, 3-fold dilution, resulting in a top dose of 300 nM final concentration in the cell plate. Vehicle control (neat DMSO), and positive control (an established NaV1.8 inhibitor, 25 μM final in assay in DMSO) were added manually to the outermost columns of each plate respectively. The compound plate was backfilled with 45 μL per well of Compound Loading Buffer resulting in a 240 fold dilution of compound following a 1:1 transfer of compound into the cell plate (see Step 6). Final DMSO concentration for all wells in the assay was 0.625% (0.75% DMSO was supplemented to the Compound Loading Buffer for a final DMSO concentration of 0.625%). […]

Chain of human NaV 1.8 (Q9Y5Y9 126-399 limits assumed): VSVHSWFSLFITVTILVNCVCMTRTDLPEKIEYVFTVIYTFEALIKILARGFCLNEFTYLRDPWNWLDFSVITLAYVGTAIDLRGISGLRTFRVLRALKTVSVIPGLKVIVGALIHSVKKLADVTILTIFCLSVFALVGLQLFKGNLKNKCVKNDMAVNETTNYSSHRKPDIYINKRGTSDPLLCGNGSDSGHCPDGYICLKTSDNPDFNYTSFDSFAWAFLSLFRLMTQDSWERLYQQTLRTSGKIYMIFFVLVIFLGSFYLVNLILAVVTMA
Chain of human NaV 1.8 (Q9Y5Y9 660-890 limits assumed): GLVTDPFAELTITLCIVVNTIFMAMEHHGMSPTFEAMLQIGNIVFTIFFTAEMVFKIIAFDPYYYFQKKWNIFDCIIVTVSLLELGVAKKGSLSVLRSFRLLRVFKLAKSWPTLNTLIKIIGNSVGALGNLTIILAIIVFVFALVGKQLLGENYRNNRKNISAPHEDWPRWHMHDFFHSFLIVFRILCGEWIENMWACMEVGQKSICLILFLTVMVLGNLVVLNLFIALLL
Chain of human NaV 1.8 (Q9Y5Y9 1148-1722 limits assumed): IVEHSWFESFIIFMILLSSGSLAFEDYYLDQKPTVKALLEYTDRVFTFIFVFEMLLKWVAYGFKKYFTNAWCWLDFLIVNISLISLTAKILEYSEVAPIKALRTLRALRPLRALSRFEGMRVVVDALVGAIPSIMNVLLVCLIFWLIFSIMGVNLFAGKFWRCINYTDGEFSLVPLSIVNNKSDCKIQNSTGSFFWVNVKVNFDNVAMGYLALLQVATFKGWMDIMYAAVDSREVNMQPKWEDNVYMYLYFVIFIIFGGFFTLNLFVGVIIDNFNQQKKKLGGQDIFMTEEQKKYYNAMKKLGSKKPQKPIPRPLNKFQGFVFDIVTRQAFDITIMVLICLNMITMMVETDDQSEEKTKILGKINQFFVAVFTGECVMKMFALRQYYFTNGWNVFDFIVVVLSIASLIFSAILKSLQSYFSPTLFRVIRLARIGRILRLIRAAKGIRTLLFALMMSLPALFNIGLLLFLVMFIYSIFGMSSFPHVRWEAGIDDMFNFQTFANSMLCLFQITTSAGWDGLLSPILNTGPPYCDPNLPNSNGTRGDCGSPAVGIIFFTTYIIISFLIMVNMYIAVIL

Row | Structure (SMILES) | IC50
1 | COc1c(C2C(C(=O)Nc3ccnc(S(C)(=O)=O)c3)OC(C)(C(F)(F)F)C2C)ccc(F)c1F (single isomer, unassigned) [Compound 49, 3-(3,4-difluoro-2-methoxy-phenyl)-4,5-dimethyl-N-(2-methylsulfonyl-4-pyridyl)-5-(trifluoromethyl)tetrahydrofuran-2-carboxamide] | ≥ 1000 nM
2 | C[C@H]1[C@@H](c2ccc(F)c(F)c2OC(F)F)[C@H](C(=O)Nc2cccnc2)O[C@@]1(C)C(F)(F)F (single isomer, unassigned) [Compound 65] | 10 to 100 nM
3 | C[C@@H]1[C@H](c2ccc(F)c(F)c2OC(F)F)[C@@H](C(=O)Nc2cccnc2)O[C@]1(C)C(F)(F)F (single isomer, unassigned) [Compound 66] | ≥ 1000 nM
4 | C[C@@H]1[C@H](c2ccc(F)c(F)c2OC(F)F)[C@@H](C(=O)Nc2ccc(=O)n(C)c2)O[C@]1(C)C(F)(F)F (single isomer, unassigned) [Compound 67] | ≥ 1000 nM
5 | C[C@@H]1[C@H](c2ccc(F)c(F)c2OC(F)F)[C@@H](C(=O)Nc2cncc(C#N)c2)O[C@]1(C)C(F)(F)F (single isomer, unassigned) [Compound 69] | ≥ 1000 nM
6 | C[C@H]1[C@@H](c2ccc(F)c(F)c2OC(F)F)[C@H](C(=O)Nc2cncc(C#N)c2)O[C@@]1(C)C(F)(F)F (single isomer, unassigned) [Compound 70] | 100 to 1000 nM

Same assay, conditions: HEK cells expressing truncated human NaV 1.8; no human serum; read-out: IC50 in the E-VIPR Assay

Row | Structure (SMILES) | IC50
7 | COc1c(C2C(C(=O)Nc3cccc(P(C)(C)=O)c3)OC(C)(C(F)(F)F)C2C)ccc(F)c1F (single isomer, unassigned) [Compound 41, 3-(3,4-difluoro-2-methoxy-phenyl)-N-(3-dimethylphosphorylphenyl)-4,5-dimethyl-5-(trifluoromethyl)tetrahydrofuran-2-carboxamide] | ≥ 1000 nM
8 | COc1c(C2C(C(=O)Nc3cccc(P(C)(C)=O)c3)OC(C)(C(F)(F)F)C2C)ccc(F)c1F (single isomer, unassigned) [Compound 42, 3-(3,4-difluoro-2-methoxy-phenyl)-N-(3-dimethylphosphorylphenyl)-4,5-dimethyl-5-(trifluoromethyl)tetrahydrofuran-2-carboxamide] | < 10 nM
9 | CCS(=O)(=O)c1cc(NC(=O)C2OC(C)(C(F)(F)F)C(C)C2c2ccc(F)c(F)c2OC)ccn1 (single isomer, unassigned) [Compound 51, 3-(3,4-difluoro-2-methoxy-phenyl)-N-(2-ethylsulfonyl-4-pyridyl)-4,5-dimethyl-5-(trifluoromethyl)tetrahydrofuran-2-carboxamide] | < 10 nM
10 | CCS(=O)(=O)c1cc(NC(=O)C2OC(C)(C(F)(F)F)C(C)C2c2ccc(F)c(F)c2OC)ccn1 (single isomer, unassigned) [Compound 52, 3-(3,4-difluoro-2-methoxy-phenyl)-N-(2-ethylsulfonyl-4-pyridyl)-4,5-dimethyl-5-(trifluoromethyl)tetrahydrofuran-2-carboxamide] | ≥ 1000 nM
11 | C[C@H]1[C@@H](c2ccc(F)c(F)c2OC(F)F)[C@H](C(=O)Nc2ccc(=O)n(C)c2)O[C@@]1(C)C(F)(F)F (single isomer, unassigned) [Compound 68] | 10 to 100 nM
12 | C[C@@H]1[C@H](c2ccc(F)c(F)c2OC(F)F)[C@@H](C(=O)Nc2cc(S(C)(=O)=O)ccn2)O[C@]1(C)C(F)(F)F (single isomer, unassigned) [Compound 71] | ≥ 1000 nM

Further lines, results first:

Row | IC50 | Structure (SMILES)
13 | ≥ 1000 nM | COc1c(C2C(C(=O)Nc3ccnc(C(O)CO)c3)OC(C)(C(F)(F)F)C2C)ccc(F)c1F (single isomer, unassigned) [Compound 43, 3-(3,4-difluoro-2-methoxy-phenyl)-N-[2-(1,2-dihydroxyethyl)-4-pyridyl]-4,5-dimethyl-5-(trifluoromethyl)tetrahydrofuran-2-carboxamide]
14 | < 10 nM | COc1c(C2C(C(=O)Nc3ccnc(C(O)CO)c3)OC(C)(C(F)(F)F)C2C)ccc(F)c1F (single isomer, unassigned) [Compound 44, 3-(3,4-difluoro-2-methoxy-phenyl)-N-[2-(1,2-dihydroxyethyl)-4-pyridyl]-4,5-dimethyl-5-(trifluoromethyl)tetrahydrofuran-2-carboxamide]
15 | < 10 nM | COc1c(C2C(C(=O)Nc3ccnc(C(O)CO)c3)OC(C)(C(F)(F)F)C2C)ccc(F)c1F (single isomer, unassigned) [Compound 46, 3-(3,4-difluoro-2-methoxy-phenyl)-N-[2-(1,2-dihydroxyethyl)-4-pyridyl]-4,5-dimethyl-5-(trifluoromethyl)tetrahydrofuran-2-carboxamide]
16 | ≥ 1000 nM | COc1c(C2C(C(=O)Nc3ccnc(C(C)(C)O)c3)OC(C)(C(F)(F)F)C2C)ccc(F)c1F (single isomer, unassigned) [Compound 47, 3-(3,4-difluoro-2-methoxy-phenyl)-N-[2-(1-hydroxy-1-methyl-ethyl)-4-pyridyl]-4,5-dimethyl-5-(trifluoromethyl)tetrahydrofuran-2-carboxamide]
17 | < 10 nM | COc1c(C2C(C(=O)Nc3ccnc(C(C)(C)O)c3)OC(C)(C(F)(F)F)C2C)ccc(F)c1F (single isomer, unassigned) [Compound 48, 3-(3,4-difluoro-2-methoxy-phenyl)-N-[2-(1-hydroxy-1-methyl-ethyl)-4-pyridyl]-4,5-dimethyl-5-(trifluoromethyl)tetrahydrofuran-2-carboxamide]
18 | < 10 nM | COc1c(C2C(C(=O)Nc3ccnc(S(C)(=O)=O)c3)OC(C)(C(F)(F)F)C2C)ccc(F)c1F (single isomer, unassigned) [Compound 50, 3-(3,4-difluoro-2-methoxy-phenyl)-4,5-dimethyl-N-(2-methylsulfonyl-4-pyridyl)-5-(trifluoromethyl)tetrahydrofuran-2-carboxamide]
19 | 100 to 1000 nM | COc1c(C2C(C(=O)Nc3ccnc(S(C)(=N)=O)c3)OC(C)(C(F)(F)F)C2C)ccc(F)c1F (single isomer, unassigned) [Compound 53, 3-(3,4-difluoro-2-methoxy-phenyl)-4,5-dimethyl-N-[2-(methylsulfonimidoyl)-4-pyridyl]-5-(trifluoromethyl)tetrahydrofuran-2-carboxamide]
20 | < 10 nM | COc1c(C2C(C(=O)Nc3ccnc(S(C)(=N)=O)c3)OC(C)(C(F)(F)F)C2C)ccc(F)c1F (single isomer, unassigned) [Compound 54, 3-(3,4-difluoro-2-methoxy-phenyl)-4,5-dimethyl-N-[2-(methylsulfonimidoyl)-4-pyridyl]-5-(trifluoromethyl)tetrahydrofuran-2-carboxamide]
21 | < 10 nM | COc1c(C2C(C(=O)Nc3ccnc(S(C)(=N)=O)c3)OC(C)(C(F)(F)F)C2C)ccc(F)c1F (single isomer, unassigned) [Compound 55, 3-(3,4-difluoro-2-methoxy-phenyl)-4,5-dimethyl-N-[2-(methylsulfonimidoyl)-4-pyridyl]-5-(trifluoromethyl)tetrahydrofuran-2-carboxamide]
22 | 100 to 1000 nM | COc1c(C2C(C(=O)Nc3ccnc(S(C)(=N)=O)c3)OC(C)(C(F)(F)F)C2C)ccc(F)c1F (single isomer, unassigned) [Compound 56, 3-(3,4-difluoro-2-methoxy-phenyl)-4,5-dimethyl-N-[2-(methylsulfonimidoyl)-4-pyridyl]-5-(trifluoromethyl)tetrahydrofuran-2-carboxamide]
